Experimental data taken from patent US20030133918A1, “Methods for ex vivo propagation of somatic stem cells” (priority 2001, published 2003).

Experiments:
[1] = tested on: rat liver epithelial cell strains; assay: Colony formation assay of rat liver epithelial cell strains in Xs-free or Xs-containing medium; assay type: cell-based; settings: for Colony formation efficiency Xs+/Xs− Ratio: 50 μM xanthosine vs Xs-free medium; for Colony formation efficiency, Xs+ (Mean % ± SD; n = 6): 50 μM xanthosine, 14 days, 200 cells per well
Source text: Three Xs-free (“Xs-F”) cell strains and 8 Xs-derived (“Xs-D”) cell strains were chosen for cell kinetics analysis. Despite the similarities in their derivation course, there is a remarkable difference in the growth properties of Xs-F and Xs-D cell strains (see Table 1). […] This is a highly significance difference (p=0.004). […] The estimated mean increase in colony formation efficiency for Xs-D strains in Xs-containing medium is 11-fold, ranging from a 10% (Xs-D9; not statistically significant) to a 40-fold increase (Xs-D13; p<0.0001). The growth of Xs-F strains was unaffected by Xs even at the higher concentration of 100 μM (data not shown). [table]

[2] = tested on: Rat liver epithelial cells; assay: Clonal derivation of rat liver epithelial cells by limiting dilution in 96-well plates; assay type: cell-based
Source text: Using xanthosine (Xs) as a pharmacological agent to switch tissue stem cells from their default asymmetric cell kinetics program to exponential kinetics, we attempted to derive clonal rat liver epithelial stem cell lines that retained the ability to divide with asymmetric cell kinetics when Xs was removed. Rat liver epithelial cells found in the low-speed supernatant of centrifuged cells from in situ collagenase-perfused livers were clonally-derived by limiting dilution in 96-well plates in the absence or presence of added Xs (200 μM or 400 μM). Colonies with epithelial cell morphology arose with similar efficiency under both conditions (4.1±0.31 percent for both 480 Xs− wells and 960 Xs+ wells). The efficiency of establishing cell strains from these initial colonies was also similar, 50% (3/6) for colonies expanded in Xs-free medium and 65% (11/17) for colonies derived in Xs-containing medium. Each type of cell strain has now been maintained continuously in culture for >80 cell doublings. Early passage cells were cryo-preserved in liquid nitrogen and can be re-established in culture after thawing.

## O=c1[nH]c(=O)c2ncn([C@@H]3O[C@H](CO)[C@@H](O)[C@H]3O)c2[nH]1 [Xs, xanthosine]
[1]; Xs-F strains, even at the higher concentration of 100 μM, data not shown
  Growth of Xs-F strains: unaffected
[1]; cell strain Xs-D4
  Colony formation efficiency Xs+/Xs− Ratio: 1.5
  Colony formation efficiency, Xs+ (Mean % ± SD; n = 6): 8.0 ± 1.1%
[1]; cell strain Xs-D6
  Colony formation efficiency Xs+/Xs− Ratio: 1.4
  Colony formation efficiency, Xs+ (Mean % ± SD; n = 6): 5.3 ± 1.8%
[1]; cell strain Xs-D7
  Colony formation efficiency Xs+/Xs− Ratio: ≧22
  Colony formation efficiency, Xs+ (Mean % ± SD; n = 6): 6.7 ± 2.2%
[1]; cell strain Xs-D8
  Colony formation efficiency Xs+/Xs− Ratio: 17
  Colony formation efficiency, Xs+ (Mean % ± SD; n = 6): 22 ± 3.6%
[1]; cell strain Xs-D9
  Colony formation efficiency Xs+/Xs− Ratio: 1.1
  Colony formation efficiency, Xs+ (Mean % ± SD; n = 6): 11 ± 2.6%
[1]; cell strain Xs-D13
  Colony formation efficiency Xs+/Xs− Ratio: 40
  Colony formation efficiency, Xs+ (Mean % ± SD; n = 6): 12 ± 2.7%
[1]; cell strain Xs-D14
  Colony formation efficiency Xs+/Xs− Ratio: 1.3
  Colony formation efficiency, Xs+ (Mean % ± SD; n = 6): 0.4 ± 0.67%
[1]; cell strain Xs-D15
  Colony formation efficiency Xs+/Xs− Ratio: 5.3
  Colony formation efficiency, Xs+ (Mean % ± SD; n = 6): 10 ± 1.6%
[1]; cell strain Xs-F1
  Colony formation efficiency Xs+/Xs− Ratio: 0.9
  Colony formation efficiency, Xs+ (Mean % ± SD; n = 6): 9.8 ± 2.2%
[1]; cell strain Xs-F2
  Colony formation efficiency Xs+/Xs− Ratio: 1.0
  Colony formation efficiency, Xs+ (Mean % ± SD; n = 6): 29 ± 3.7%
[1]; cell strain Xs-F3
  Colony formation efficiency Xs+/Xs− Ratio: 1.0
  Colony formation efficiency, Xs+ (Mean % ± SD; n = 6): 18 ± 3.7%
[1]; mean of 8 Xs-D strains, Xs-containing vs Xs-free medium
  Estimated mean increase in colony formation efficiency for Xs-D strains in Xs-containing medium: 11 fold
[1]; strain Xs-D9, not statistically significant
  Increase in colony formation efficiency in Xs-containing medium: 10%
[1]; strain Xs-D13, p<0.0001
  Increase in colony formation efficiency in Xs-containing medium: 40 fold
[2]; 960 Xs+ wells, added Xs 200 μM or 400 μM, same value for 480 Xs− wells
  Efficiency with which colonies with epithelial cell morphology arose: 4.1±0.31%
[2]; colonies derived in Xs-containing medium (11/17), Xs-free 50% (3/6)
  Efficiency of establishing cell strains from initial colonies: 65%
